Laboratory results: ChEMBL document CHEMBL1201862, “PubChem BioAssay data set” (2004)
Active and inactive are the calls of the source.

Columns and labels:
Mu-type opioid receptor = Mu-type opioid receptor (Homo sapiens, UniProt P35372); assay: HTS Image-Based Screen for Agonists of the MOR Receptor. [Related pubchem assays (depositor defined):AID1777, AID1785, AID1786, AID2133]; format: functional;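 further: imaging of beta-arrestin GFP recruitment into spots after receptor activation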
[1] = Trypanosoma cruzi growth suppression in host cells – NIH3T3 host cells, beta-gal luminescence, confirmation (AID 2044); format: functional, cell-based;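 further: intracellular parasites grown in NIH/3T3 mouse fibroblasts as host cells; luminescent beta-galactosidase reporter signal from transgenic T. cruzi replicating inside host cells; inhibitors lower the luminescence signal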
[2] = NIH3T3 cell viability loss – ATP luminescence, mouse fibroblasts, counter-screen, dose response (AID 2010); format: functional, cell-based;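 further: cells exposed to compound for about 90 hours before reading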
Beta-galactosidase = Beta-galactosidase (Escherichia coli, UniProt Q8VNN2); format: functional
[3] = target: Kappa-type opioid receptor (Homo sapiens, UniProt P41145); format: functional
Beta Lactamase = Beta Lactamase (Pseudomonas aeruginosa, UniProt Q932Y6); assay: BLA reporter interference, concentration series – BLA reporter cells, FRET fluorescence, artefact control for TLR9-MyD88 binding inhibitor project, dose response (AID 588341); format: cell-based;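 further: cell based assay in CHO-K1 cells stably expressing beta-lactamase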
Genome polyprotein = Genome polyprotein (dengue virus type 2, UniProt P29990); assay: flavivirus cap methylation enzyme inhibition – biochemical, confirmation dose response, primary screen (AID 588689); format: functional
Fatty acid synthase = Fatty acid synthase (Homo sapiens, UniProt P49327); assay: inhibition of human FAS-TE enzyme activity – biochemical, endpoint fluorescence intensity, uHTS hits, dose response (AID 624327); format: functional;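 further: fluorescence from hydrolysis of an O-methyl fluorescein acyl ester substrate by the enzyme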
[4] = target: Tyrosine-protein phosphatase non-receptor type 11 (Homo sapiens, UniProt Q06124); assay: PTPN11 enzyme inhibitors – biochemical, selectivity assay for STEP inhibitor project, dose response (AID 602367); format: functional; conditions: read-out: IC50_Mean
[5] = target: Polyadenylate-binding protein 1 (Homo sapiens, UniProt P11940); assay: MLLE domain peptide-binding blockers, IC50 – biochemical, fluorescence polarization, FITC-PAM2 peptide, dose response (AID 602259); format: functional; conditions: read-out: IC50_Mean
[6] = target: T1, Small ubiquitin-related modifier 1 (Homo sapiens, UniProt P63165); assay: SUMO1 protein interaction blockers, potency – biochemical, fluorescence polarization, uHTS hits, dose response (AID 624382); format: functional; conditions: read-out: IC50_Mean
[7] = target: T1, Small ubiquitin-related modifier 1; assay: SUMO1 protein-protein binding blockers, potency – biochemical, FRET, dose response (AID 624383); format: functional; conditions: read-out: IC50_Mean
[8] = target: T2, Histone-lysine N-methyltransferase NSD2 (Homo sapiens, UniProt O96028); format: biochemical
T2 sequence (O96028 whole entry): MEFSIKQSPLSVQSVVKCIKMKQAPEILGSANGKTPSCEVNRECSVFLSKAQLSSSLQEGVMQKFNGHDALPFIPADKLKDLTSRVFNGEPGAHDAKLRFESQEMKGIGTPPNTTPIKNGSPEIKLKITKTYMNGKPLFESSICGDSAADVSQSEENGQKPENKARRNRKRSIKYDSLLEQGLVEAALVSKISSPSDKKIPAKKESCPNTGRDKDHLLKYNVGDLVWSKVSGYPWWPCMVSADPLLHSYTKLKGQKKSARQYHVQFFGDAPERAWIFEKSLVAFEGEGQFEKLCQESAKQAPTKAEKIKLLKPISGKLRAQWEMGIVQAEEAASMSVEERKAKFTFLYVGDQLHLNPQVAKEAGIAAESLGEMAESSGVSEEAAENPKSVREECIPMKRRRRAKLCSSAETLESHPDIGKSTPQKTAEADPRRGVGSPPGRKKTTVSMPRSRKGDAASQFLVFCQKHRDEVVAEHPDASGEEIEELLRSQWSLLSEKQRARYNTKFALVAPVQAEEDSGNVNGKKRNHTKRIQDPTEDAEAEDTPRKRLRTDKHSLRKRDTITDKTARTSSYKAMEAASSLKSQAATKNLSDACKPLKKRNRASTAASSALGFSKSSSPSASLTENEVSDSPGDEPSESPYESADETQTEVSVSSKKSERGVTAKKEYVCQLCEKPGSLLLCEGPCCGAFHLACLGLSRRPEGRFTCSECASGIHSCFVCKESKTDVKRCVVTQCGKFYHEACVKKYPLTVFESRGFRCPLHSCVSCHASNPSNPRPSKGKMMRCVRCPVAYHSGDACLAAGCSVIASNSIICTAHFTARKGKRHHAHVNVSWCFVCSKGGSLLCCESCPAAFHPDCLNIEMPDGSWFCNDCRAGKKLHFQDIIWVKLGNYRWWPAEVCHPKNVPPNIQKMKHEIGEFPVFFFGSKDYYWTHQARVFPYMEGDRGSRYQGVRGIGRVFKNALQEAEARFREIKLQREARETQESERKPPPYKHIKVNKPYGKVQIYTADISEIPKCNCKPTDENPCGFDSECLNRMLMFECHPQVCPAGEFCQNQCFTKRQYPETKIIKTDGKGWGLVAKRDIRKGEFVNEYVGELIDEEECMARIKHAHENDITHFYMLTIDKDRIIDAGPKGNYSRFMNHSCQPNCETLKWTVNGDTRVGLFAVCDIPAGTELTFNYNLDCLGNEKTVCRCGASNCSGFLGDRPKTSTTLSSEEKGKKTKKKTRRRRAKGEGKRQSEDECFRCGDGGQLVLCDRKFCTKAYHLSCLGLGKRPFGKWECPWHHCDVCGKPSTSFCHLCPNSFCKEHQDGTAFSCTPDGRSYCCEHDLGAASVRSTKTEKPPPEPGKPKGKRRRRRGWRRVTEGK

Chain of Genome polyprotein (P29990 2492-3391 limits assumed): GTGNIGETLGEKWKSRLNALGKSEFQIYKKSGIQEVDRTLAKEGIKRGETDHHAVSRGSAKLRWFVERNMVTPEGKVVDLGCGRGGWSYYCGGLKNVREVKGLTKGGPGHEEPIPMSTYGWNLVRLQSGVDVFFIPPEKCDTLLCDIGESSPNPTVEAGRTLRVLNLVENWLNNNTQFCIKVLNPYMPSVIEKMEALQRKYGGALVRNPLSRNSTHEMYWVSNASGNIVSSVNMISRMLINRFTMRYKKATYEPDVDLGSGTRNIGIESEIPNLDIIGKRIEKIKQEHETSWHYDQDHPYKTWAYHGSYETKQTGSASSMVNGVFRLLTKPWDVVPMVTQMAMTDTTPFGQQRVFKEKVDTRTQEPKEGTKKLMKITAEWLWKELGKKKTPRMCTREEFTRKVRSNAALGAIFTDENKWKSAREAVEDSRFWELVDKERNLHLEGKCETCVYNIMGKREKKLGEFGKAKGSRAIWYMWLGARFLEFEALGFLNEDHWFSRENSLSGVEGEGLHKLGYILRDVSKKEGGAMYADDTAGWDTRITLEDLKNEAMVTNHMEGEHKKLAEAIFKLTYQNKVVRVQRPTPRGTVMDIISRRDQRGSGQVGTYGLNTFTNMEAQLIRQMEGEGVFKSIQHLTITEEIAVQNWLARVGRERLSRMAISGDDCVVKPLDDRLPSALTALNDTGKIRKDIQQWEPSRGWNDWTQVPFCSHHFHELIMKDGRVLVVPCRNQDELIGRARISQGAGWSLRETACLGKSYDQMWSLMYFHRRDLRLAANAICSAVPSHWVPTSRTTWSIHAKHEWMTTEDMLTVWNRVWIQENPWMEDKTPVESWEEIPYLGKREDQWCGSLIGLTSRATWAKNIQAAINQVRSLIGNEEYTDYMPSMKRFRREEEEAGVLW
T1 sequence (P63165 whole entry): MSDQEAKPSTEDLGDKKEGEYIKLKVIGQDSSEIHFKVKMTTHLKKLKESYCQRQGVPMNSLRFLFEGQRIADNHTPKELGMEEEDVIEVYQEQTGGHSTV
Chain of Fatty acid synthase (P49327 whole entry): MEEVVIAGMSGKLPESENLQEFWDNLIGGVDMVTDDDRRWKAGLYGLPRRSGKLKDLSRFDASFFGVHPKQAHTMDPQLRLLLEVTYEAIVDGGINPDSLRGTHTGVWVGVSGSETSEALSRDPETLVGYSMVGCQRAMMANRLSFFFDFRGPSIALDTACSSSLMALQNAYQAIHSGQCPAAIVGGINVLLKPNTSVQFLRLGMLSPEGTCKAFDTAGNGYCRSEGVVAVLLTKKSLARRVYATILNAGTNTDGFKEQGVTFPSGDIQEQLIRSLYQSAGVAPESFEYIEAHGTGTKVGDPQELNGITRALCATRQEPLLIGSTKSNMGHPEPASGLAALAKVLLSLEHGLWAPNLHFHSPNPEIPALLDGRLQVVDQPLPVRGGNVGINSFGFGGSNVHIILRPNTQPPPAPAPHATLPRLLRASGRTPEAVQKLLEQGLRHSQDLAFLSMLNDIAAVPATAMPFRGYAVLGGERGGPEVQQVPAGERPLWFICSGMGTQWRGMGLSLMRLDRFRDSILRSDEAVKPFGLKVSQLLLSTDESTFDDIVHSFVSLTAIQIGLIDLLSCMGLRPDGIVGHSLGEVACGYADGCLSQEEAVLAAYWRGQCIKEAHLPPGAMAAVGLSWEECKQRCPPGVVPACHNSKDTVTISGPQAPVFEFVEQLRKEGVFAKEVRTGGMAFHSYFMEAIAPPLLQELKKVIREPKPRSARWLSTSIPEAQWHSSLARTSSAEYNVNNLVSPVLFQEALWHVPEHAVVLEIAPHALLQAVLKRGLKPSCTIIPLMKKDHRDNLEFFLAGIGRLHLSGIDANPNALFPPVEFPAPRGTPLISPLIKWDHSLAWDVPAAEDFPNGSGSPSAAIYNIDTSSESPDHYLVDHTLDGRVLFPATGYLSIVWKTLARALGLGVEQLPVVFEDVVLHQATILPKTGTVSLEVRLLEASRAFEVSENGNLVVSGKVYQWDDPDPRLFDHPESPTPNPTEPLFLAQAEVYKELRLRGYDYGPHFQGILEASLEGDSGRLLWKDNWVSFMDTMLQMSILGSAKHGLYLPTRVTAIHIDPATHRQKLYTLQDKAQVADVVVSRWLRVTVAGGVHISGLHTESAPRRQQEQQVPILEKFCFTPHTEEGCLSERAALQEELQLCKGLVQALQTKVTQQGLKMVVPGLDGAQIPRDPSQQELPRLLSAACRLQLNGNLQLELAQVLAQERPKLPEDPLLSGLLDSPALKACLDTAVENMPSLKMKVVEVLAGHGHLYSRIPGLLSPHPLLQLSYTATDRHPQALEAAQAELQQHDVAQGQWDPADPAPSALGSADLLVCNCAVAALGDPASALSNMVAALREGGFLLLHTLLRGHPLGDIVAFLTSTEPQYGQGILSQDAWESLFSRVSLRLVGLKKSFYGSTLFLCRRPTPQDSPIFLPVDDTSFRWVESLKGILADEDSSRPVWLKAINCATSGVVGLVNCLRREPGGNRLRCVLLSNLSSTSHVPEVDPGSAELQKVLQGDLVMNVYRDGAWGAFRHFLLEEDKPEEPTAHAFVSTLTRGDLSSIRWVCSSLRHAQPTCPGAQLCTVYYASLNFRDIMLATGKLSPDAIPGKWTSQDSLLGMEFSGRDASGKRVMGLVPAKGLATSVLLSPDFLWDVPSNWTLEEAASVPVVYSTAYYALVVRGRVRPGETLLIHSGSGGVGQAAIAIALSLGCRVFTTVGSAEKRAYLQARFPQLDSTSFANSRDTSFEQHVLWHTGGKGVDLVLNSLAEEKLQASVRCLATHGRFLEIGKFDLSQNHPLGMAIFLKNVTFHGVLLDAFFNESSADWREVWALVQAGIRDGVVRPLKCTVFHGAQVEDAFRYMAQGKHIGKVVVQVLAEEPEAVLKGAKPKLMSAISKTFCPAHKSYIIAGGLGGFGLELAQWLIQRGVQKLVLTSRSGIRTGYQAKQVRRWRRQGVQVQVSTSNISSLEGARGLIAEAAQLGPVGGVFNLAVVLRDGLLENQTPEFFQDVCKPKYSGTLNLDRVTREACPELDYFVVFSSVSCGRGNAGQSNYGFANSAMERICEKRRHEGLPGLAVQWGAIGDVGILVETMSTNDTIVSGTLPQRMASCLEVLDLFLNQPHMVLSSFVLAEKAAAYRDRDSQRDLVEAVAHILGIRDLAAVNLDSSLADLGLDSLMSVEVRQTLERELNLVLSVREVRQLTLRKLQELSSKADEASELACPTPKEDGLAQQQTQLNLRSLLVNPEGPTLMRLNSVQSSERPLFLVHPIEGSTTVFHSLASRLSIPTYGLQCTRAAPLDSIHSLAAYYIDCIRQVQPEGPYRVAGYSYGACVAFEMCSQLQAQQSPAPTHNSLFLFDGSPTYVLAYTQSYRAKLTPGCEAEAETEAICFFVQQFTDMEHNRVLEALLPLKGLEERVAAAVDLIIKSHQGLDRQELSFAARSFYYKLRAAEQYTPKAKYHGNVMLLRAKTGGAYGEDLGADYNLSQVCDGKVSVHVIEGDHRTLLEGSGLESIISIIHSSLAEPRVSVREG
Chain of Kappa-type opioid receptor (P41145 whole entry): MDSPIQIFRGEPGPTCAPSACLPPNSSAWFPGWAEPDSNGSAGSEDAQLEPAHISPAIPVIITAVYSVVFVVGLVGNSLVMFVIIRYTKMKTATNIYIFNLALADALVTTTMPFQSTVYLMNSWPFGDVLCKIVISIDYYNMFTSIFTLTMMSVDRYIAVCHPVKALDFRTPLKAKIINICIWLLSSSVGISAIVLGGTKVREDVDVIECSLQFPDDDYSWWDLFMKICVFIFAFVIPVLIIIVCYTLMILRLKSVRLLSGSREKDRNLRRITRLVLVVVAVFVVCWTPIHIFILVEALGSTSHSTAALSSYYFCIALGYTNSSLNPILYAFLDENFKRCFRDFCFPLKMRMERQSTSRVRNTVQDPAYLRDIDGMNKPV
Chain of Polyadenylate-binding protein 1 (P11940 whole entry, the tested form may be a part): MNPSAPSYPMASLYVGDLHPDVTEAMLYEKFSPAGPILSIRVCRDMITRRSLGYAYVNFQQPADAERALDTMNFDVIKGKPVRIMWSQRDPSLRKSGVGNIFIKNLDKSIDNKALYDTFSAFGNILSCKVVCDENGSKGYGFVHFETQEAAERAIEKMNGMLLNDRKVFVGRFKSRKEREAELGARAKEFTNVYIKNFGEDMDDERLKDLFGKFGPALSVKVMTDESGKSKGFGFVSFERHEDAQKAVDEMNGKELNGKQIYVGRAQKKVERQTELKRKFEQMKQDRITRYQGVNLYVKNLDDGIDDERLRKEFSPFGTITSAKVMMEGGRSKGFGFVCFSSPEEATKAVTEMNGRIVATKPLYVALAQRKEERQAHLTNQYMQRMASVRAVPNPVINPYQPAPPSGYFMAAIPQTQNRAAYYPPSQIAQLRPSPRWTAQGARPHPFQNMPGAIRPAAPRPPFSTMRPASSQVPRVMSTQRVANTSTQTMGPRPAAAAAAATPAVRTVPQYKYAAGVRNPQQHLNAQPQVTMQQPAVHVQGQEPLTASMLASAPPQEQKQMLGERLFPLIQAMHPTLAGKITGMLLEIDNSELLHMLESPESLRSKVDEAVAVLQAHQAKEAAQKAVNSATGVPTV
Chain of Mu-type opioid receptor (P35372 whole entry): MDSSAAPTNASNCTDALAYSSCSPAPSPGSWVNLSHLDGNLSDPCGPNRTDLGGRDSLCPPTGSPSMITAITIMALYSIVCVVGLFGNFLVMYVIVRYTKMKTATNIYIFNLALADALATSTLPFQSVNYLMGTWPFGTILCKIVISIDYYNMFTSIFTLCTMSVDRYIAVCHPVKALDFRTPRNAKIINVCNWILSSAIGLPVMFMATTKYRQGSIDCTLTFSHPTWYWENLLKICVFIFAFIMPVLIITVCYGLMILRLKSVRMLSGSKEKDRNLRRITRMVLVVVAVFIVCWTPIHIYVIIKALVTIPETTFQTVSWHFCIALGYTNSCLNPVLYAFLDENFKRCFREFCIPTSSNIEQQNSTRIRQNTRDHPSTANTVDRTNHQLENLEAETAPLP

SMILES: O=[N+]([O-])c1c(Nc2ccccc2O)cc(Cl)c2nonc12
- EC50 (Mu-type opioid receptor): > 32 µM (inactive)
- EC50 [1]: 1.79 µM (active)
- EC50 [2]: 3.68 µM (active)
- EC50 (Beta-galactosidase): > 31.5 µM (inactive)
- IC50 [3]: 11.5 µM
- IC50 (Beta Lactamase): 18.4 µM (inactive)
- IC50 (Genome polyprotein): 9.7 µM (active)
- IC50 (Fatty acid synthase): 14.6 µM (active)

SMILES: O=S(=O)(O)c1cc(O)c2cc(Nc3ccccc3)ccc2c1
- IC50 (Genome polyprotein): 19.4 µM (active)
- IC50 [4]: 0.335 µM (active)
- IC50 [5]: > 66 µM (inactive)
- IC50 [6]: > 66.6 µM (inactive)
- IC50 [7]: 4.47 µM (active)
- AC50 [8]: 1.8 µM (active)
